Data published in patent US5981583A (priority 1997, dated 1999).
Where two headings read alike, the source gives them in different places.

How the values were obtained:
NF-κB [1] = assay type: biochemical, human
AP-1 = assay type: cell-based; conditions: 25 μg/ml, 2 hours
NF-κB [2] = assay type: cell-based, human
TFII D = assay type: cell-based; conditions: 25 μg/ml, 2 hours
in vitro [3] = conditions: human, u937 cells
p65 [4] = assay type: cell-based, human
NF-κB [5] = assay type: cell-based, human; remark: listed apart in the source
Oct-1 = assay type: cell-based; conditions: 25 μg/ml, 2 hours
IκBa [6] = assay type: cell-based, human
NF-κB [7] = assay type: biochemical
p65 [8] = assay type: cell-based, human; remark: listed apart in the source
NF-κB [9] = assay type: cell-based, human; remark: listed apart in the source
NF-κB [10] = assay type: cell-based, human; remark: listed apart in the source
IκBa [11] = assay type: cell-based, human; remark: listed apart in the source
p50 = assay type: cell-based
NF-κB [12] = assay type: cell-based
NF-κB [13] = assay type: cell-based, human; remark: listed apart in the source
in vitro [14] = assay: in vitro
[15] = system: IκBa promoter linked to the CAT gene; assay type: cell-based
c-Rel = assay type: cell-based
NF-κB [16] = assay type: cell-based; remark: listed apart in the source

Structure (SMILES): O=C(/C=C/c1ccc(O)c(O)c1)OCCc1ccccc1 [CAPE, caffeic acid (3,4-dihydroxy cinnamic acid) phenethyl ester]
- binding of NF-κB to DNA, deoxycholate-treated cytoplasmic extracts (NF-κB [1]): interfered with the binding of NF-κB proteins to DNA
- binding of NF-κB to DNA, nuclear extracts from TNF-preactivated cells (NF-κB [1]): prevented NF-κB from binding to DNA
- DNA-binding ability of AP-1 (AP-1): did not inhibit
- activation of NF-κB induced by H2O2 (NF-κB [2]): completely blocked
- activation of NF-κB induced by ceramide (NF-κB [2]): completely blocked
- activation of NF-κB induced by okadaic acid (NF-κB [2]): completely blocked
- activation of NF-κB induced by phorbol myristate acetate (NF-κB [2]): completely blocked
- DNA-binding ability of TFII D (TFII D): did not inhibit
- viability (in vitro [3]): > 98%
- TNF-induced appearance of p65 in the nucleus (p65 [4]): blocked
- cytoplasmic pool of p65 (p65 [4]): none of the treatments altered significantly
- CAPE-induced inhibition of NF-κB activation in the presence of reducing agents (NF-κB [5]): reversed completely
- activation of NF-κB by the substance alone (NF-κB [5]): No activation
- concentration with maximum effect on TNF-dependent activation of NF-κB (NF-κB [5]): 25 µg/mL
- inhibition of TNF-dependent activation of NF-κB (NF-κB [5]): inhibited the TNF-dependent activation of NF-κB in a dose-dependent manner
- kinetics of inhibition of TNF response: cotreatment with TNF (NF-κB [5]): not effective
- kinetics of inhibition of TNF response: pretreatment (NF-κB [5]): inhibited only when the cells were pretreated
- DNA-binding ability of Oct-1 (Oct-1): did not inhibit
- TNF-induced rate of degradation of IκBa (IκBa [6]): did not affect significantly
- cytoplasmic pool of IκBa, substance alone (IκBa [6]): no effect
- resynthesis of IκBa after TNF (IκBa [6]): did delay its resynthesis

Structure (SMILES): COc1cc(CNC(=O)CCCCC=CC(C)C)ccc1O [capsaicin, 8-methyl-N-vanillyl-6-nonenamid]
- ability of NF-κB to bind to the DNA, deoxycholate-treated cytoplasmic extracts from capsaicin-exposed cells (NF-κB [7]): did not modify
- ability of NF-κB to bind to the DNA, nuclear extracts exposed to capsaicin after TNF treatment (NF-κB [7]): did not modify
- TNF-induced migration of p65 into the nucleus (p65 [8]): did block the TNF-induced migration
- level of cytoplasmic p65, capsaicin alone (p65 [8]): remained unaffected
- migration of p65 protein into the nucleus, capsaicin by itself (p65 [8]): did not induce this migration
- concentration with almost complete inhibition of TNF-induced NF-κB (NF-κB [9]): 200 µM
- NF-κB activation on co-incubation with TNF (NF-κB [10]): did not block NF-κB activation
- activation of NF-κB by 10 nM TNF (NF-κB [10]): completely inhibited
- activation of NF-κB by the substance itself (NF-κB [10]): did not activate NF-κB
- concentration that inhibited most of the activation induced by TNF (NF-κB [10]): 200 to 300 µM
- pre-incubation time for maximum inhibition of the response to TNF (NF-κB [10]): 120 min
- TNF-mediated degradation of IκBa (IκBa [11]): abolished
- appearance of TNF-mediated slower-migrating band of IκBa (IκBa [11]): abolished
- level of cytoplasmic IκBa, capsaicin alone (IκBa [11]): remained unaffected
- level of p50 protein in cytosolic fraction (p50): neither capsaicin by itself or in combination with TNF had any effect
- concentration with almost complete inhibition of TNF-induced NF-κB (NF-κB [12]): 200 µM
- NF-κB activation mediated through okadaic acid (NF-κB [13]): inhibited only partially
- phorbol myristate acetate-induced activation of NF-κB (NF-κB [13]): completely blocked
- viability at 2 h, 100 µM (in vitro [14]): 99%
- viability at 2 h, 200 µM (in vitro [14]): 98%
- viability at 2 h, 300 µM (in vitro [14]): 95%
- TNF-enhanced CAT activity, pIκBCAT-transfected cells [15]: reduced significantly
- level of c-Rel protein in cytosolic fraction (c-Rel): neither capsaicin by itself or in combination with TNF had any effect

Structure (SMILES): O=C(C=Cc1cc(O)ccc1O)OCCc1ccccc1 [compound 1]
- activity in inhibiting NF-κB activation relative to CAPE (NF-κB [5]): as active as CAPE
- effect of CAPE analogues on TNF-induced NF-κB activation (NF-κB [5]): increased the potency of inhibition

Structure (SMILES): COc1ccc(C=CC(=O)OCCc2ccccc2)cc1OC [compound 2]
- activity in inhibiting NF-κB activation relative to CAPE (NF-κB [5]): less active than CAPE

Structure (SMILES): O=C(C=Cc1ccc(O)c(O)c1O)OCCc1ccccc1 [compound 3]
- activity in inhibiting NF-κB activation relative to CAPE (NF-κB [5]): less active than CAPE
- effect of CAPE analogues on TNF-induced NF-κB activation (NF-κB [5]): loss of potency

Structure (SMILES): O=C(C=Cc1ccc(O)c(O)c1)OCCCc1ccccc1 [compound 4]
- activity in inhibiting NF-κB activation relative to CAPE (NF-κB [5]): less active than CAPE
- effect of CAPE analogues on TNF-induced NF-κB activation (NF-κB [5]): significant loss of inhibition

Structure (SMILES): C=C(C)[C@]12C[C@@H](C)[C@@]34O[C@](Cc5ccccc5)(O[C@@H]1[C@@H]3C=C(COC(=O)Cc1ccc(O)c(OC)c1)C[C@]1(O)C(=O)C(C)=C[C@@H]41)O2 [resiniferatoxin]
- TNF-mediated activation of NF-κB (NF-κB [16]): completely inhibited
- activation of NF-κB by the substance itself (NF-κB [16]): did not activate NF-κB
- concentration sufficient for maximum inhibition of the TNF response (NF-κB [16]): 40 µM
- potency relative to capsaicin (NF-κB [16]): approximately 8 fold
